Experiments:
[1] = Solubility remarks during testing; format: physicochemical; conditions: concentrations higher than 500 μM cannot be tested
[2] = tested on: histone H4 acetylation in HeLa cells; experiment: Acetyl histone H4 Western blotting in HeLa cells; format: cell-based, human; conditions: 500 μM, 6 h
Experimental: The acetyl-α-tubulin sandwich ELISA Kit (Pathscan® #7204, Cell Signalling) was used to determine tubulin acetylation levels, and Western blotting was used to evaluate histone H4 acetylation, both methods applied to lysates of treated and non-treated HeLa cells (ATCC CCL-2). Cells were cultured in DMEM medium, 4.5 g/L glucose, L-glutamine (Invitrogen), supplemented with 10% heat-inactivated fetal bovine serum (FBS, Biowest), 100 units/mL penicillin, and 100 μg/mL streptomycin, and 1% non-essential amino acids (Invitrogen) at 37 °C with 5% CO2. Prior to ELISA experiments, cells were seeded into 6-well plates at 150,000 cells/well and transfected with the HDAC6-GFP construct (pEGFP.N1-HDAC6, Addgene)[58], using the Lipofectamine 2000 reagent (Invitrogen). Cells were then treated with test compounds, standards or vehicle (0.5% DMSO in culture medium) for 48 h. After the incubation time, cells were washed with cold DPBS (Invitrogen) and lysates were obtained by recovering cells in cold lysis buffer provided in the ELISA kit, supplemented with a protease inhibitor tablet (SigmaFast, Sigma Aldrich). Briefly, cells were harvested in DPBS and centrifuged. The cell pellet was suspended in 100 μL lysis buffer, vortexed, and kept on melting ice for 30 min. […] Protein concentration was determined by fluorimetry using the Qubit protein assay kit (Invitrogen). […]

Cytotoxicity XTT, HeLa = format: cell-based, human; conditions: human, HeLa cells, mean ± SD of 3 independent experiments in triplicate, read-out: cytotoxic IC50 HeLa
Experimental: HeLa and HEK 293 cells (ATCC CRL-1573) were cultured as described above and seeded into 96-well plates at 400 cells/well. Test and standard compounds were added to plate wells in triplicate (0.05% DMSO in culture medium) in a range of six concentrations. Following 72 h of incubation, […] of an activated XTT solution was added to the cells (1 mg/mL). The absorbance was measured at 450 nm after 2 h incubation at 37 °C. The growth of the compound-treated cells was compared with the growth of vehicle-treated control cells. IC50 values were calculated with GraphPad Prism 6.0.

With `NNC(=O)c1ccc(COc2ccccc2Cl)cc1` [AK-14] the “solubility remark in HeLa cell assay” value [1] was “solubility issues”, the “acetylation profile of histone H4” value [2] was “did not change” and the IC50 at 72 h (Cytotoxicity XTT, HeLa) was 299 ± 56.1 µM.

Source: article PMC4941420, “A Rational Approach for the Identification of Non-Hydroxamate HDAC6-Selective Inhibitors” (Scientific Reports, 2016)
